Entries after “also recorded” stand apart in the source; their conditions may differ. Residues, ends and D or L forms follow the SMILES beside them. *: point of attachment. Cbz = O=C(OCc1ccccc1)*; CH2F = FC*
What was measured:
H82 cells = assay: Restoration of cell survival by RIPK1 or caspase inhibition, H82; format: cell-based; conditions: H82 treated with PlaB plus inhibitor
Protocol: (§1) FIG. 8A-8B: Spliceosome Perturbation induces RIPK1-dependent apoptosis. (FIG. 8A) H82 and H446 cells were treated with PlaB, PlaB+Z-vad, PlaB+R3i, and PlaB+Z-Vad+R3i. H82 and H446 cells were treated with PlaB, PlaB+Z-vad, and PlaB+Necl.
(§2) In addition, our CRISPR-Cas9 KO of RIPK1 also rescues SCLC cell lines from PlaB induced toxicity.

H446 cells [1] = assay: Restoration of cell survival by RIPK1 or caspase inhibition, H446; format: cell-based, human; conditions: H446 treated with PlaB plus inhibitor
Protocol: as §1, §2

H446 cells [2] = assay: Immunofluorescence of A-RNA (J2) and Z-NA (Z22), H446; format: cell-based, human; conditions: low dose
From the text: FIG. 4A-4C: SF3B1 perturbation increases dsRNA and Z-nucleic acid levels in treated cells. […] (FIG. 4B) Quantification of A-RNA and Z-Nucleic acids. (FIG. 4C) Western blot showing induction of cleaved-PARP, pH2AX, and ZBP1, and the reduction of RIPK1 protein levels. Plots of signal intensity are mean±SEM, two-tailed unpaired Student's t test **p<0.01, ****p<0.0001.
Our observations led us to explore what caused the elevated IFN response. We used an immunofluorescence (IF) technique to determine if A-RNA was increased after PlaB treatment.

ZBP1 reconstituted MEF = assay: Rescue of PlaB-mediated cell death by RIPK3 inhibitor; format: cell-based, mouse; conditions: 2.5 nM PlaB, 18 hours, with RIPK3 inhibitor
Protocol: FIG. 5A-5E: SF3B1 perturbation upregulates A-RNA and Z-nucleic acids in MEFs. (FIG. 5A) 5 nM of PlaB induces A-RNA and Z-Nucleic acids in ΔZBP1 MEF cells. (FIG. 5B) Quantification of A-RNA and Z-Nucleic acids. […] Plots of signal intensity are mean±SEM, two-tailed unpaired Student's t test *p<0.05, ***p<0.001, ****p<0.0001. 18 hours of PlaB treatment for IF, WB and rescue experiments. IF: 5 nM PlaB, WB and rescue experiments: 2.5 nM PlaB.
Since induction of Z-nAs can result in ZBP1-dependent necroptosis, we analyzed induction of necroptosis in necroptotic competent MEFs using spliceosome inhibition. […] We also determined that MEFs ΔZBP1, WT, and Flag-ZBP1 cells treated with PlaB began dying within 24hours after treatment. With MEF Flag-ZBP1 cells showing only 20% survival after 24 hours (FIG. 16).

CN1C(=O)C(Cc2c[nH]c3ccccc23)NC1=S (stereo not shown) [Nec-I, necrostatin I]
cell survival (H82 cells): significantly restore cell survival
cell survival (H446 cells [1]): significantly restore cell survival

NS(=O)(=O)c1ccc(S(=O)(=O)Nc2cccc3c(Cl)c[nH]c23)cc1 [indisulam]
accumulation of A-RNA (H446 cells [2]; J2 antibody): induces accumulation
accumulation of Z-Nucleic acids (H446 cells [2]; Z22 antibody): induces accumulation

Cc1cc(-c2cnc(N)c3c(-c4ccc5scnc5c4)csc23)n(C)n1 [GSK-843]
rescue of PlaB-mediated cell death (necroptosis) (ZBP1 reconstituted MEF): completely rescued; also recorded: successfully rescue

COC(=O)C[C@H](NC(=O)[C@H](C)NC(=O)[C@@H](NC(=O)OCc1ccccc1)C(C)C)C(=O)CF [Z-Vad FMK] (Cbz-Val-Ala-Asp(OMe)-CH2F)
cell survival (H82 cells): significantly restore cell survival
cell survival (H446 cells [1]): significantly restore cell survival

From patent US20260355180A1, “COMPOSITIONS AND METHODS FOR SPLICEOSOME-TARGETED THERAPIES” (Institute for Cancer Research d/b/a The Research Institute …, priority 2022, published 2026)
